We go through 4 molecules from patent US20120264784A1, “METHODS OF TREATING ELEVATIONS IN MTOR SIGNALING” (priority 2009, published 2012).

The test system of assay [1] is area CA1 of hippocampal slices. Kind of assay: DHPG induced mGluR-LTD, field EPSP recordings in acute hippocampal slices. Details: species or system mice. Here is the method:
Acute hippocampal slices were prepared from P25-30 animals in ice-cold dissection buffer containing (in mM): NaCl 87, Sucrose 75, KCl 2.5, NaH2PO4 1.25, NaHCO3 25, CaCl2 0.5, MgSO4 7, Ascorbic acid 1.3, and D-glucose 10 (saturated with 95% O2/5% CO2). Immediately following slicing the CA3 region was removed. Slices were recovered in artificial cerebrospinal fluid (ACSF) containing (in mM): NaCl 124, KCl 5, NaH2PO4 1.23, NaHCO3 26, CaCl2 2, MgCl2 1 and D-glucose 10 (saturated with 95% O2/5% CO2) at 32.5° C. for about >3 hours prior to recording.
(§1) Field recordings were performed in a submersion chamber, perfused with ACSF (about 2-3 ml/min) at 30° C. Field EPSPs (fEPSPs) were recorded in CA1 stratum radiatum with extracellular electrodes filled with ACSF. Baseline responses were evoked by stimulation of the Schaffer collaterals at 0.033 Hz with a 2-contact cluster electrode (FHC) using about a 0.2 ms stimulus yielding about 40-60% of the maximal response. fEPSP recordings were filtered at about 0.1 Hz-1 kHz, digitized at 10 kHz, and analyzed using pClamp9 (Axon Instruments). The initial slope of the response was used to assess changes in synaptic strength. Data were normalized to the baseline response and are presented as group means±SEM. LTD was measured by comparing the average response about 55-60 minutes post DHPG application to the average of the last 5 minutes of baseline.
(§2) Input output function was examined by stimulating slices with incrementally increasing current (about 20, about 40, about 80, about 120, about 200, about 300 μA) and recording the fEPSP response. Paired pulse facilitation was induced by applying two pulses at different interstimulus intervals (about 10, about 20, about 50, about 100, about 200, about 300, about 500 ms). Facilitation was measured by the ratio of the fEPSP slope of stimulus 2 to stimulus 1. NMDAR-dependent LTD was induced by delivering 900 test pulses at 1 Hz. mGluR-LTD was induced by applying R, S-Dihydroxyphenylglycine (R,S-DHPG, 50 μM) or S-Dihydroxyphenylglycine (S-DHPG, 25 μM) for about 5 minutes, the effects of which were followed for 60 minutes following treatment. In some experiments slices were incubated with the protein synthesis inhibitor cycloheximide (60 μM) for 30 minutes as follows: about 20 minutes during baseline recording, about 5 minutes during DHPG application and about 5 minutes post DHPG application.
For mGluR PAM experiments, slices were pretreated with CDPPB (10 μM) or DMSO control for about 30 minutes in same manner as above, either in the presence of cycloheximide or control ACSF. For rapamycin experiments, slices were pretreated with rapamycin (20 nM) or DMSO control, with or without cycloheximide, for at least 30 minutes prior to DHPG application and throughout the entire experiment.

Assay [2] has as its system area CA1 of hippocampal slices. Kind of assay: Paired pulse facilitation (presynaptic LTD) in acute hippocampal slices. Details: species or system mice. Conditions: for PPF (ratio of fEPSP slope of stimulus 2 to stimulus 1): 50 ms inter-stimulus interval, 60 minutes post DHPG (FIG. 3D). Here is the method: as §1, §2
Assay [3] deals with wildtype and Tsc2^+/− mice. The assay is described as follows: Context fear-conditioning (context discrimination). Type of assay: in vivo. Conditions: for effect on context discrimination (in words): 10 mg/kg i.p. 30 minutes prior to training; for percentage of time spent freezing: single injection 10 mg/kg i.p. 30 minutes prior to training, tested 24 hours later. The method, then: Context fear-conditioning experiments were employed to assess improvements in cognitive processing following administration of a composition that activates Group I mGluR signaling, such as by administration of mGluR5PAMs. Context fear-conditioning was performed using a modification of a previously described procedure (Ehninger, D., et al., Nat Med 14, 843-8 (2008). Wildtype and Tsc2^+/− mice (8-12 weeks old) are habituated to the testing room and experimenter for 3 days prior to training On the day of training, mice is placed in the training context and delivered one 0.80 mA shocks (2 sec). The mice were allowed about 3 minutes to explore context before conditioning and were removed about 15 sec after the shock was given and returned to home cage. Conditioned fear response was assessed 24 hours later by a trained observer measuring the percentage of time spent freezing during the test period (about 3 min session). To determine context specificity of the conditioned response, mice trained at the same time were separated into two groups: one group was tested in the same training context and the other tested in a novel context. This novel context was created by varying: distal cues, odor, floor material, and lighting of the testing apparatus. For rescue experiments, animals received a single injection of CDPPB (10 mg/kg, i.p.) about 30 minutes prior to training session.
Cognitive impairments in the Tsc2^+/− mice were improved by treating the animals with the mTORC1 inhibitor rapamycin (Ehninger, D., et al., Nat. Med. 14: 843-848 (2008)). A robust phenotype was reported to be an impairment in the ability of the Tsc2^+/− mice to distinguish between familiar and novel contexts in a fear conditioning paradigm. The advantage of this paradigm is the learning occurs in one trial, making it amenable to acute drug treatment, and the memory is hippocampus-dependent. The mice are first exposed to a distinctive context in which they receive an aversive foot shock. The next day, context discrimination is tested by dividing the animals into two groups, one placed in the familiar context associated with the shock, and the other placed in a novel context (FIG. 6A). Context discrimination is assessed by measuring the time the animals express fear by freezing in each context.

`CO[C@H]1C[C@@H]2CC[C@@H](C)[C@@](O)(O2)C(=O)C(=O)N2CCCC[C@H]2C(=O)O[C@H]([C@H](C)C[C@@H]2CC[C@@H](O)[C@H](OC)C2)CC(=O)[C@H](C)/C=C(\C)[C@@H](O)[C@@H](OC)C(=O)[C@H](C)C[C@H](C)/C=C/C=C/C=C/1C` [RAP, rapamycin]: the “DHPG induced LTD (fEPSP slope normalized to baseline)” value is given as 75.3±3% in assay [1] (slices from Tsc2^+/− mice, pretreatment with rapamycin 20 nM (FIG. 5B)); 89.3±2.4% in assay [1] (slices from Tsc2^+/− mice, rapamycin 20 nM with cycloheximide (FIG. 5C)); 73.0% in assay [1] (slices from wildtype animals, pretreatment with rapamycin 20 nM (FIG. 5A)). Besides, the “effect on DHPG induced LTD (in words)” value in assay [1] (slices from WT mice) is “no effect”.
As to `C[C@@H]1C[C@@H]([C@H](O)CC2CC(=O)NC(=O)C2)C(=O)[C@@H](C)C1` [CHX, cycloheximide], the “effect on DHPG induced LTD (in words)” value in assay [1] (slices from Tsc2^+/− mice) is on record as “no effect on LTD”; in assay [1] (slices from WT mice) it was “reliably reduced”. For the same molecule, the “DHPG induced LTD (fEPSP slope normalized to baseline)” value is recorded as 83.5±2.1% in assay [1] (slices from Tsc2^+/− mice, cycloheximide 60 μM (FIG. 3C)) and 85.6±3.4% in assay [1] (slices from WT mice, pretreatment with cycloheximide 60 μM (FIG. 3A)). Also, the “PPF (ratio of fEPSP slope of stimulus 2 to stimulus 1)” value is on record as 1.62±0.04 in assay [2] (Tsc2^+/− slices, DHPG+CHX) and 1.58±0.05 in assay [2] (WT slices, DHPG+CHX). Besides, the “effect on changes in PPF following DHPG (in words)” value in assay [2] (WT slices, cycloheximide 60 μM (FIG. 3D)) is listed as “not inhibited”.
Consider `N[C@@H](C(=O)O)c1cc(O)cc(O)c1` (racemic) [DHPG, (R,S)-3,5-dihydroxyphenylglycine], for which the “DHPG induced LTD (fEPSP slope normalized to baseline)” value is 85.2±2.7% in assay [1] (slices from Tsc2^+/− mice, DHPG alone, 5 min, 55-60 min post DHPG (FIG. 3B)) and 74.1±2.0% in assay [1] (slices from WT mice, DHPG alone, 5 min, 55-60 min post DHPG (FIG. 3B)). In addition, the “PPF (ratio of fEPSP slope of stimulus 2 to stimulus 1)” value in assay [2] (Tsc2^+/− slices) turned out to be 1.63±0.02; in assay [2] (WT slices), 1.59±0.04.
Consider `N#Cc1cccc(C(=O)Nc2cc(-c3ccccc3)nn2-c2ccccc2)c1` [CDPPB, 3-cyano-N-(1,3-diphenyl-1H-pyrazol-5-yl)benzamide], for which the “effect on DHPG induced LTD (in words)” value in assay [1] (slices from Tsc2^+/− mice) is listed as “restored the magnitude of mGluR-LTD in Tsc2^+/− mice to WT levels”. The “DHPG induced LTD (fEPSP slope normalized to baseline)” value in assay [1] (slices from Tsc2^+/− mice, CDPPB 10 μM co-applied with cycloheximide (FIG. 5E)) stood at 84.8±1.8%; in assay [1] (slices from Tsc2^+/− mice, pretreatment with CDPPB 10 μM (FIG. 5D)) it was 72.7±4.4%. The “effect on DHPG induced LTD in the presence of cycloheximide (in words)” value in assay [1] (slices from Tsc2^+/− mice, with cycloheximide) is “completely eliminated by cycloheximide”. Further, the “effect on context discrimination (in words)” value in assay [3] (Tsc2^+/− mice) is listed as “sufficient to correct the deficit in context discrimination”; in assay [3] (WT mice), “no effect”. The “percentage of time spent freezing” value is 44.5±4.3% in assay [3] (Tsc2^+/− mice, familiar context); 31.6±3% in assay [3] (Tsc2^+/− mice, novel context); 42.3±3.7% in assay [3] (WT mice, familiar context); 26.4±3.6% in assay [3] (WT mice, novel context).
